Drawing on patent publication US10752588B2 (The Broad Institute, Inc., priority 2014, dated 2020), this text covers EC50 and IC50 for 18 compounds.

Assay [1] addresses T1, human D2R/β-arrestin (Homo sapiens (Human), UniProt P14416). Kind of assay: Gi/cAMP agonist assay (Lance Ultra cAMP, Forskolin). The class given is cell-based. The settings on record: CHO-K1 cell line expressing human D2R/β-arrestin. On the procedure:
(§1) The assays can be performed using proper detection reagents either prepared using routine methods known in the art or commercially available (e.g., PE Lance Ultra cAMP kit (TRF0263)). Cells are grown to the necessary confluence and then detached. The cells are then centrifuged, washed, resuspended, and seeded into a container (e.g., 384-well plate). The cells are incubated (e.g., at 37° C., 5% CO2) for the appropriate period of time (e.g., 24 hours), before various compounds (e.g., a compound of the invention or a control compound) are added to the cells. Afterwards, cAMP inducing agents (e.g., Forskolin) are added to and incubated with the cells before detection reagents (e.g., a cAMP antibody, such as ULight-anti-cAMP solution) are added to the cells. Read-out (e.g., luminescence, or fluorescence) is detected using standard equipment.
Compounds were pin-transferred (100 nL) to the cells, and incubated for 10 min. at 37° C. […] Eu-cAMP tracer solution (100, PerkinElmer, […] in 17.64 ml kit buffer) and ULight-anti-cAMP solution (100, 120 μL antibody in 17.88 ml kit buffer) was then added to each well.

In assay [2] the target is T1, human D2R/β-arrestin. Kind of assay: cell-based. Conditions: β-arrestin Antagonist, CHO-K1 cell line expressing human D2R/β-arrestin; quinpirole used as agonist.
The target in assay [3] is T1, human D2R/β-arrestin. Kind of assay: β-Arrestin agonist assay (PathHunter). Type of assay: cell-based. The settings on record: CHO-K1 cell line expressing human D2R/β-arrestin. On the procedure: as §1, with “PathHunter® β-Arrestin Detecting Kit (DiscoveRX)).” for “PE Lance Ultra cAMP kit (TRF0263)).”, “After incubation of the cells” for “Afterwards, cAMP inducing agents (e.g., Forskolin) are added to and incubated”, “compounds,” for “cells before”, “buffer containing Emerald II: Galactor-Star” for “cAMP antibody, such”, “provided DiscoveRX)” for “ULight-anti-cAMP solution)”, “The read-out” for “Read-out”
The detection reagent (9.6 μL, Buffer:Emerald II:Galactor-Star in a 19:5:1 ratio, i.e., 14.06 mL:3.7 mL:0.74 mL=18.5 mL) was then added to the agonist plates.

Assay [4] concerns the target T1, human D2R/β-arrestin. Briefly: cell-based. The settings on record: cAMP Antagonist, CHO-K1 cell line expressing human D2R/β-arrestin; quinpirole used as agonist.

In general, EC50 refers to the midpoint of the concentration-response curve. Usually IC50 stands for the concentration that gives 50% inhibition. A low value points to inhibition by little substance.

T1 sequence (P14416 whole entry): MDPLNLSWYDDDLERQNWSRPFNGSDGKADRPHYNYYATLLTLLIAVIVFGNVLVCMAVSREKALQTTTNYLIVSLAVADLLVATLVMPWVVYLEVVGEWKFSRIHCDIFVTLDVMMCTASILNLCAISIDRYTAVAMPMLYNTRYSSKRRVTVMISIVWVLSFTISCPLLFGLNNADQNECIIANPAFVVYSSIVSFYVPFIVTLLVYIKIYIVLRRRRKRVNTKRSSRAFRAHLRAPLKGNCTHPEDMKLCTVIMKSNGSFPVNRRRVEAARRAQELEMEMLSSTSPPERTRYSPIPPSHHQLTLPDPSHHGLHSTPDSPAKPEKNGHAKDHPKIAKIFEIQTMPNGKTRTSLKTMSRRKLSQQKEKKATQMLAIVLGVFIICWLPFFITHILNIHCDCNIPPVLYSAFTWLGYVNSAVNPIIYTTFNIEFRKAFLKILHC

Take `O=C(NC(c1ccc(Cl)cc1)c1ccccn1)C1CCN(CCOc2cccc(Cl)c2)CC1` (single isomer, unassigned) [Compound 1a, 1-(2-(3-chlorophenoxy)ethyl)-N-((4-chlorophenyl)(pyridin-2-yl)methyl)piperidine-4-carboxamide]: the EC50 on human D2R/β-arrestin [1] and at human D2R/β-arrestin [3] was over 30000 nM throughout. Besides, the IC50 at human D2R/β-arrestin [2] is 1000 to 10000 nM; at human D2R/β-arrestin [4] it was 100 to 1000 nM.

`O=C(NC(c1ccc(Cl)cc1)c1ccccn1)C1CCN(CCOc2ccccc2)CC1` (single isomer, unassigned) [Compound 63a, N-((4-chlorophenyl)(pyridin-2-yl)methyl)-1-(2-phenoxyethyl)piperidine-4-carboxamide]: the EC50 is 100 to 1000 nM at human D2R/β-arrestin [1] and over 30000 nM on human D2R/β-arrestin [3]. Further, the results for the IC50 on human D2R/β-arrestin [2] and at human D2R/β-arrestin [4] were 1000 to 10000 nM and over 30000 nM, respectively.

`O=C(NC(c1ccc(Cl)cc1)c1ccccn1)C1CCN(CCOc2ccccc2)CC1` (single isomer, unassigned) [Compound 63b, N-((4-chlorophenyl)(pyridin-2-yl)methyl)-1-(2-phenoxyethyl)piperidine-4-carboxamide]: the EC50 on human D2R/β-arrestin [1] and at human D2R/β-arrestin [3] was over 30000 nM each time. Also, the IC50 on human D2R/β-arrestin [2] and on human D2R/β-arrestin [4] was 100 to 1000 nM each time.

Consider `CC1(C(=O)NC(c2ccc(F)cc2)c2ccccn2)CCN(CCOc2ccccc2)CC1` (single isomer, unassigned) [Compound 69a, N-((4-fluorophenyl)(pyridin-2-yl)methyl)-4-methyl-1-(2-phenoxyethyl)piperidine-4-carboxamide], for which the EC50 at human D2R/β-arrestin [1] and on human D2R/β-arrestin [3] was 100 to 1000 nM in each case. The IC50 on human D2R/β-arrestin [2] was 1000 to 10000 nM; at human D2R/β-arrestin [4] it was over 30000 nM.

On to `CN(CC1CCN(CCOc2ccccc2F)CC1)C(c1ccc(Cl)cc1)c1ccccn1` (single isomer, unassigned) [Compound 72b, 1-(4-chlorophenyl)-N-((1-(2-(2-fluorophenoxy)ethyl)piperidin-4-yl)methyl)-N-methyl-1-(pyridin-2-yl)methanamine], for which the EC50 at human D2R/β-arrestin [1] and on human D2R/β-arrestin [3] was over 30000 nM each time. In addition, the IC50 at human D2R/β-arrestin [2] and on human D2R/β-arrestin [4] was under 100 nM each time.

Take `CN(CC1CCN(CCOc2ccccc2)CC1)C(c1ccc(F)cc1)c1ccccn1` (single isomer, unassigned) [Compound 74a, 1-(4-fluorophenyl)-N-methyl-N-((1-(2-phenoxyethyl)piperidin-4-yl)methyl)-1-(pyridin-2-yl)methanamine]: the EC50 at human D2R/β-arrestin [1] was 1000 to 10000 nM; at human D2R/β-arrestin [3] it was over 30000 nM. In addition, the IC50 on human D2R/β-arrestin [2] is 1000 to 10000 nM; at human D2R/β-arrestin [4], over 30000 nM.

For the compound `CN(CC1CCN(CCOc2ccccc2)CC1)C(c1ccc(F)cc1)c1ccccn1` (single isomer, unassigned) [Compound 74b, 1-(4-fluorophenyl)-N-methyl-N-((1-(2-phenoxyethyl)piperidin-4-yl)methyl)-1-(pyridin-2-yl)methanamine], the figures for the EC50 at human D2R/β-arrestin [1] and on human D2R/β-arrestin [3] were 100 to 1000 nM and over 30000 nM, respectively. Besides, the IC50 on human D2R/β-arrestin [2] and on human D2R/β-arrestin [4] was 100 to 1000 nM throughout.

For the compound `COc1cccc(C(c2ccccn2)N(C)CC2CCN(CCOc3ccccc3)CC2)c1` (single isomer, unassigned) [Compound 76a, 1-(3-methoxyphenyl)-N-methyl-N-((1-(2-phenoxyethyl)piperidin-4-yl)methyl)-1-(pyridin-2-yl)methanamine], the EC50 on human D2R/β-arrestin [1] is 100 to 1000 nM; on human D2R/β-arrestin [3], over 30000 nM. Moreover, the concentration for half-maximal inhibition (IC50) was 1000 to 10000 nM on human D2R/β-arrestin [2] and 100 to 1000 nM on human D2R/β-arrestin [4].

Consider `Fc1ccc(C(NCC2CCN(CCOc3ccccc3)CC2)c2ccccn2)cc1` (single isomer, unassigned) [Compound 78a, 1-(4-fluorophenyl)-N-((1-(2-phenoxyethyl)piperidin-4-yl)methyl)-1-(pyridin-2-yl)methanamine], for which the EC50 on human D2R/β-arrestin [1] was 100 to 1000 nM; on human D2R/β-arrestin [3], over 30000 nM. The IC50 at human D2R/β-arrestin [2] and on human D2R/β-arrestin [4] was 1000 to 10000 nM each time.

For `CN(CC1CCN(CCOc2ccccc2)CC1)C(c1ccc(Cl)cc1)c1ccccn1` (single isomer, unassigned) [Compound 79a, 1-(4-chlorophenyl)-N-methyl-N-((1-(2-phenoxyethyl)piperidin-4-yl)methyl)-1-(pyridin-2-yl)methanamine], the EC50 on human D2R/β-arrestin [1] and at human D2R/β-arrestin [3] was over 30000 nM each time. Also, the IC50 at human D2R/β-arrestin [2] and on human D2R/β-arrestin [4] was 1000 to 10000 nM in each case.

For the compound `Fc1ccccc1C(NCC1CCN(CCOc2ccccc2)CC1)c1ccc(Cl)cc1` (single isomer, unassigned) [Compound 81a, 1-(4-chlorophenyl)-1-(2-fluorophenyl)-N-((1-(2-phenoxyethyl)piperidin-4-yl)methyl)methanamine], the EC50 on human D2R/β-arrestin [1] and on human D2R/β-arrestin [3] was over 30000 nM in each case. The IC50 on human D2R/β-arrestin [2] and at human D2R/β-arrestin [4] was 100 to 1000 nM in each case.

For the compound `Fc1ccc(F)c(OCCN2CCC(CNC(c3ccc(Cl)cc3)c3ccccn3)CC2)c1` (single isomer, unassigned) [Compound 89a, 1-(4-chlorophenyl)-N-((1-(2-(2,5-difluorophenoxy)ethyl)piperidin-4-yl)methyl)-1-(pyridin-2-yl)methanamine], the EC50 at human D2R/β-arrestin [1] and at human D2R/β-arrestin [3] was over 30000 nM throughout. Further, the IC50 on human D2R/β-arrestin [2] and at human D2R/β-arrestin [4] was 100 to 1000 nM each time.

As to `Fc1ccc(F)c(OCCN2CCC(CNC(c3ccc(Cl)cc3)c3ccccn3)CC2)c1` (single isomer, unassigned) [Compound 89b, 1-(4-chlorophenyl)-N-((1-(2-(2,5-difluorophenoxy)ethyl)piperidin-4-yl)methyl)-1-(pyridin-2-yl)methanamine], the values for the EC50 at human D2R/β-arrestin [1] and on human D2R/β-arrestin [3] were 100 to 1000 nM and over 30000 nM, respectively. Also, the IC50 at human D2R/β-arrestin [2] fell in the range of 1000 to 10000 nM; on human D2R/β-arrestin [4] it was 10000 to 30000 nM.

Turning to `O=C(NC(c1ccc(Cl)cc1)c1ccncc1F)C1CCN(CCOc2ccccc2F)CC1` (single isomer, unassigned) [Compound 91a, N-((4-chlorophenyl)(3-fluoropyridin-4-yl)methyl)-1-(2-(2-fluorophenoxy)ethyl)piperidine-4-carboxamide], the EC50 was 100 to 1000 nM on human D2R/β-arrestin [1] and over 30000 nM at human D2R/β-arrestin [3]. The IC50 on human D2R/β-arrestin [2] was 1000 to 10000 nM; on human D2R/β-arrestin [4] it was over 30000 nM.

Regarding `O=C(NC(c1ccc(Cl)cc1)c1ccc(F)cn1)C1CCN(CCOc2ccccc2F)CC1` (single isomer, unassigned) [Compound 92a, N-((4-chlorophenyl)(5-fluoropyridin-2-yl)methyl)-1-(2-(2-fluorophenoxy)ethyl)piperidine-4-carboxamide], the EC50 is 100 to 1000 nM on human D2R/β-arrestin [1] and over 30000 nM at human D2R/β-arrestin [3]. In addition, the IC50 at human D2R/β-arrestin [2] and on human D2R/β-arrestin [4] was 100 to 1000 nM throughout.

As to `O=C(NC(c1ccc(Cl)cc1)c1ccc(F)cn1)C1CCN(CCOc2ccccc2F)CC1` (single isomer, unassigned) [Compound 92b, N-((4-chlorophenyl)(5-fluoropyridin-2-yl)methyl)-1-(2-(2-fluorophenoxy)ethyl)piperidine-4-carboxamide], the results for the EC50 on human D2R/β-arrestin [1] and at human D2R/β-arrestin [3] were 10000 to 30000 nM and over 30000 nM, respectively. Besides, the IC50 on human D2R/β-arrestin [2] and at human D2R/β-arrestin [4] was 1000 to 10000 nM in each case.

On to `O=C(NC(c1cccc(OC(F)(F)F)c1)c1ccccn1)C1CCN(CCOc2ccccc2F)CC1` (single isomer, unassigned) [Compound 93a, 1-(2-(2-fluorophenoxy)ethyl)-N-(pyridin-2-yl(3-(trifluoromethoxy)phenyl)methyl)piperidine-4-carboxamide], for which the EC50 was 10000 to 30000 nM on human D2R/β-arrestin [1] and over 30000 nM at human D2R/β-arrestin [3]. The IC50 at human D2R/β-arrestin [2] lay within 1000 to 10000 nM; on human D2R/β-arrestin [4], 100 to 1000 nM.

`CC(C1CCN(CCOc2ccccc2)CC1)N(C)C(c1ccc(Cl)cc1)c1ccccn1` (single isomer, unassigned) [Compound 97a, N-((4-chlorophenyl)(pyridin-2-yl)methyl)-N-methyl-1-(1-(2-phenoxyethyl)piperidin-4-yl)ethan-1-amine]: the EC50 on human D2R/β-arrestin [1] is 100 to 1000 nM; on human D2R/β-arrestin [3], over 30000 nM. For the same compound, the IC50 on human D2R/β-arrestin [2] fell in the range of 1000 to 10000 nM; at human D2R/β-arrestin [4], 100 to 1000 nM.
